Assay results from the supplement of paper PMC10307832.

What was measured:
Assay in all cases: relative viability (nuclei count vs DMSO), 5 days (fraction); higher = more cells survive
[1] = compound: c1ccc2c(CCNc3ccc(Nc4ccncc4)cc3)c[nH]c2c1 [Serdemetan] + O=C(c1cc(Cc2n[nH]c(=O)c3ccccc23)ccc1F)N1CCN(C(=O)C2CC2)CC1 [Olaparib] (partner 8 µM)
In short: (§1)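 Lung cancer cell lines, seeded in 1536-well plates, were treated the following day by pin tool with a single drug or with five library-drug doses (not always all listed) in √10 steps on top of a fixed anchor-drug dose. Cells were fixed and nuclei stained in one step after 5 days, and nuclei were counted. Relative viability is the nuclei count for treated wells divided by that for vehicle wells, reported as medians of duplicate plates.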

[2] = compound: c1ccc2c(CCNc3ccc(Nc4ccncc4)cc3)c[nH]c2c1 [Serdemetan] + C[C@@H](Oc1cc(-c2cnn(C3CCNCC3)c2)cnc1N)c1c(Cl)ccc(F)c1Cl [Crizotinib] (partner 1 µM)
In short: as §1

[3] = compound: C1CC(C2=C(C1)C3=C(N2)C=CC(=C3)Cl)C(=O)N [Selisistat] + C[C@]1(O)C[C@@H](c2nc(-c3ccc4ccc(-c5ccccc5)nc4c3)c3c(N)nccn32)C1 [Linsitinib] (partner 1 µM)
In short: as §1

[4] = compound: c1ccc2c(CCNc3ccc(Nc4ccncc4)cc3)c[nH]c2c1 [Serdemetan] + Nc1nc2[nH]cc(CCc3ccc(C(=O)N[C@@H](CCC(=O)O)C(=O)O)cc3)c2c(=O)[nH]1 [Pemetrexed] (partner 0.2 µM)
In short: as §1

Row | Cell Line | relative viability ([1]; first compound 0.04 µM) | relative viability ([1]; first compound 0.1265 µM) | relative viability ([1]; first compound 0.4 µM) | relative viability ([1]; first compound 1.265 µM) | relative viability ([1]; first compound 4 µM) | relative viability ([2]; first compound 0.04 µM) | relative viability ([2]; first compound 0.1265 µM) | relative viability ([2]; first compound 0.4 µM) | relative viability ([2]; first compound 1.265 µM) | relative viability ([2]; first compound 4 µM) | relative viability ([3]; first compound 0.4 µM) | relative viability ([3]; first compound 4 µM) | relative viability ([3]; first compound 12.65 µM) | relative viability ([3]; first compound 40 µM) | relative viability ([4]; first compound 0.04 µM) | relative viability ([4]; first compound 0.1265 µM) | relative viability ([4]; first compound 0.4 µM) | relative viability ([4]; first compound 1.265 µM) | relative viability ([4]; first compound 4 µM) | relative viability ([3]; first compound 1.265 µM)
1 | NCI-H650 | 0.379 | 0.362 | 0.365 | 0.271 | 0.285 | 0.549 | 0.735 | 0.636 | 0.723 | 0.566 | 0.824 | 0.987 | 0.72 | 1.01 | 0.895 | 0.903 | 0.992 | 0.812 | 0.87 | –
2 | NCI-H1666 | 0.735 | 0.701 | 0.668 | – | 0.678 | 1.01 | 0.981 | 0.907 | 0.663 | 0.836 | 1.18 | 0.902 | 0.823 | 0.605 | 0.795 | 0.87 | 0.786 | – | 0.675 | 0.743
3 | NCI-H2085 | 0.818 | 0.676 | 0.597 | 0.44 | 0.393 | 0.688 | 0.817 | 0.733 | 0.627 | 0.561 | 0.985 | 0.795 | 0.803 | 0.902 | 0.91 | 0.818 | 0.773 | 0.798 | 0.642 | 1
4 | NCI-H1734 | 0.327 | 0.183 | 0.171 | 0.114 | 0.149 | 0.61 | – | 0.196 | 0.144 | 0.155 | 0.956 | 0.913 | 0.846 | 0.828 | 0.44 | 0.396 | 0.405 | 0.171 | 0.14 | 0.913
